Reference: paper PMC9554980, “Antimalarial potential of compounds isolated from Mammea siamensis T. Anders. flowers: in vitro and molecular docking studies” (BMC Complementary Medicine and Therapies, 2022)
Read-outs that look alike come from different tables or passages of the source.

Key:
Format in all cases: cell-based
[1] = tested on: chloroquine-resistant P. falciparum (K1) strain; experiment: In vitro antimalarial activity, pLDH assay; settings: Plasmodium falciparum
Procedure: P. falciparum was cultured according to the method of Trager and Jensen with some modifications. The parasites were cultured in noninfected human red blood cells (2% hematocrit) using RPMI 1640 medium that was supplemented with 0.5% Albumax II, 10 µg/ml hypoxanthine, 2.5 µg/ml gentamicin, 4.8 mg/ml HEPES and buffered with 2 mg/ml sodium bicarbonate as described previously in our previous study. All the chemicals and reagents used for culturing were purchased from Sigma–Aldrich, New Delhi, India and Gibco, Waltham, MA USA. The culture was maintained at 37 °C in a CO2 incubator. The culture medium was changed, and Giemsa-stained slides were prepared daily to monitor parasitemia.
The in vitro antimalarial activity of the isolated compounds was assessed on cultured P. falciparum using the Plasmodium lactate dehydrogenase (pLDH) assay described by Makler with some modifications. Briefly, the compounds were individually dissolved in DMSO to obtain a stock solution of 1 mM, and the solution was then diluted to a final working concentration of 0.78–100 µM. […] Parasitized red blood cells (2% hematocrit, 2% parasitemia) were aliquoted into a 96-well cell culture plate, and then the infected red cells were exposed. The tested compound was added to 96-well plates and incubated at 37 °C for 72 h in a CO2 incubator. At the end of incubation, the plates were subjected to three freeze/thaw cycles (frozen at -20 °C and thawed at 37 °C) for complete hemolysis. The lysed cells were transferred to a new 96-well plate that contained a mixture of 100 µl of Malstat reagent and 20 µl of nitroblue tetrazolium/phenazine ethosulfate solution (Calbiochem®, Sigma–Aldrich, New Delhi, India) and were incubated for 1 h in the dark. The experiments were performed in triplicate. These solutions were used to determine the activity of the lactate dehydrogenase (LDH) enzyme in the cultures. When LDH was present, a purple product was formed, and the optical density was measured using a microplate reader at a wavelength of 650 nm. The concentrations at which 50% inhibition of parasite growth (IC50) was calculated using a nonlinear regression curve contained in GraphPad PRISM version 6 (GraphPad Software, Inc., La Jolla, CA, USA).

[2] = In vitro cytotoxicity, MTT assay, HepG2 cells; settings: human, 5 to 80 µM
Procedure: (§1) The toxicity of isolated compounds was assessed by a 3-(4,5-dimethythiazol2-yl)-2,5-diphenyl tetrazolium bromide (MTT) assay according to a previous method. Briefly, Vero cells, a normal mammalian cell line or HepG2 human hepatoma cell line, were seeded into 96-well plates (10^4 cell/ml) and incubated for 24 h at 37 °C with 5% CO2. Cells were then treated with various concentrations of the tested compounds ranging from 5 to 80 µM, and the final concentration of DMSO in the tested dilutions was not higher than 1% for 48 h at 37 °C with 5% CO2. Subsequently, MTT solution was added to each well, and the plate was incubated for 2 h in a CO2 incubator. The medium was then removed, and 100 µl of DMSO was added to each well. The negative control was performed using growth medium alone instead of the tested compounds, while doxorubicin (Sigma–Aldrich, New Delhi, India) was used as the positive toxic control. The assay was performed in triplicates. Finally, the optical density was determined using a microplate reader at a wavelength of 590 nm. The 50% cytotoxic concentration (CC50) was calculated using a nonlinear regression curve contained in GraphPad PRISM version 6 (GraphPad Software, Inc., La Jolla, CA, USA).

[3] = In vitro cytotoxicity, MTT assay, Vero cells; settings: African green monkey, 5 to 80 µM, read-out: CC50 Vero cell
Procedure: as §1

[4] = P. falciparum K1, pLDH assay, 72 h, mean ± S.D. of three determinations, read-out: IC50 K1

SMILES | IC50 ([1]; P. falciparum K1, pLDH assay, 72 h, positive control, IC50 unit expressed in nM (footnote), read-out: IC50 K1 (positive control)) | CC50 at 48 h ([2]; HepG2 cells) | IC50 [1, 4] | CC50 at 48 h ([3]; Vero cells) | CC50 at 48 h [2] | IC50 ([1]; K1, 72 h, read-out: IC50 K1) | CC50 at 48 h [3]
C[C@H]1[C@H](OC(=O)CCC(=O)O)O[C@@H]2O[C@@]3(C)CC[C@H]4[C@H](C)CC[C@@H]1[C@@]24OO3 [Artesunate, reference compound] | 0.53 ± 0.04 nM | – | – | – | – | – | –
C=C(C)[C@@H]1CC[C@]2(C)CC[C@]3(C)[C@H](CC[C@@H]4[C@@]5(C)CC[C@H](O)C(C)(C)[C@@H]5CC[C@]43C)[C@@H]12 [Compound 1, lupeol] | – | 29.3 ± 1.47 µM | 18800 ± 3450 nM | > 80 µM | – | – | –
COc1ccc2c(=O)c3cccc(O)c3oc2c1O [Compound 2, 4,5-dihydroxy-3-methoxyxanthone] | – | > 80 µM | 21000 ± 3560 nM | > 80 µM | – | – | –
O=c1c2ccccc2oc2c(O)cccc12 [Compound 3, 4-hydroxyxanthone] | – | – | – | – | 46.1 ± 1.66 µM | 68600 ± 2540 nM | 48.1 ± 1.68 µM
O=c1c2cc(O)ccc2oc2cccc(O)c12 [Compound 4, 1,7-dihydroxyxanthone] | – | 13.3 ± 1.12 µM | – | 7.9 ± 0.9 µM | – | 41700 ± 2230 nM | –
CC(C)CC(=O)c1c2c(c3oc(=O)cc(-c4ccccc4)c3c1O)C=CC(C)(C)O2 [Compound 6, mammea A/AA cyclo D] | – | > 80 µM | 45600 ± 3120 nM | > 80 µM | – | – | –
CC(C)CC(=O)c1c2c(c3oc(=O)cc(-c4ccccc4)c3c1O)C[C@H](C(C)(C)O)O2 [Compound 7, mammea A/AA cyclo F] | – | > 80 µM | 49890 ± 420 nM | > 80 µM | – | – | –
O=c1c2ccc(O)cc2oc2cccc(O)c12 [Compound 8, 1,6-dihydroxyxanthone] | – | – | 47900 ± 5160 nM | – | > 80 µM | – | > 80 µM
COc1cc2c(=O)c3c(O)cccc3oc2c(OC)c1OC [Compound 9, 1-hydroxy-5,6,7-trimethoxyxanthone] | – | > 80 µM | 9570 ± 1590 nM | > 80 µM | – | – | –
O=c1c2cccc(O)c2oc2c(O)c(O)ccc12 [Compound 10, 3,4,5-trihydroxyxanthone] | – | > 80 µM | 15500 ± 2630 nM | > 80 µM | – | – | –
COc1cccc2oc3c(O)cccc3c(=O)c12 [Compound 11, 5-hydroxy-1-methoxyxanthone] | – | > 80 µM | 29300 ± 4440 nM | > 80 µM | – | – | –
O=c1c2ccccc2oc2ccc(O)cc12 [Compound 12, 2-hydroxyxanthone] | – | – | – | – | > 80 µM | 75000 ± 880 nM | > 80 µM
COc1ccc2c(=O)c3c(O)cccc3oc2c1O [Compound 13, 1,5-dihydroxy-6-methoxyxanthone] | – | 30.5 ± 1.49 µM | 22300 ± 1670 nM | > 80 µM | – | – | –
COc1cccc2c1C(=O)c1c(O)c3c(c(O)c1C2=O)C[C@@](O)(C(=O)CO)C[C@@H]3O[C@H]1C[C@H](N)[C@H](O)[C@H](C)O1 [Doxorubicin, reference compound] | – | 1.11 ± 0.05 µM | – | 1.46 ± 0.16 µM | – | – | –
